# Results: the CombiSolv-Exp solvation set (Vermeire and Green 2021)
# Experiment: solvent given as SMILES
# [1] = in CCCCCCCC(=O)OCC(COC(=O)CCCCCCC)OC(=O)CCCCCCC
smiles,measurement,setting,value
O=[N+]([O-])c1ccc(O)cc1,"solvation free energy, 298 K",in CCCCCC,-7.93 kcal/mol
same,"solvation free energy, 298 K",in CCCCCCC,-7.93 kcal/mol
same,"solvation free energy, 298 K",in CCCCCCCC,-7.93 kcal/mol
same,"solvation free energy, 298 K",in CCCCCCCCCC,-7.93 kcal/mol
same,"solvation free energy, 298 K",in CCCCOCCCC,-11.8 kcal/mol
same,"solvation free energy, 298 K",in O,-10.7 kcal/mol
CC(C)CCC(C)(C)C,"solvation free energy, 298 K",in O,2.94 kcal/mol
FCCF,"solvation free energy, 298 K",in CCCO,-3.64 kcal/mol
CCCCCCCCCCCCCCCO,"solvation free energy, 298 K",in CCCCOCCCC,-12.4 kcal/mol
same,"solvation free energy, 298 K",in O,-2.92 kcal/mol
O=C(O)c1ccc(Br)cc1,"solvation free energy, 298 K",in CN(C)C=O,-12.3 kcal/mol
same,"solvation free energy, 298 K",in O,-6.67 kcal/mol
FC(F)Cl,"solvation free energy, 298 K",[1],-1.69 kcal/mol
same,"solvation free energy, 298 K",in CCCCCCCCC,-1.16 kcal/mol
[HH],"solvation free energy, 298 K",in Brc1ccccc1,1.77 kcal/mol
same,"solvation free energy, 298 K",in C1CCNC1,1.62 kcal/mol
same,"solvation free energy, 298 K",in C1CCNCC1,1.63 kcal/mol
same,"solvation free energy, 298 K",in C1CCOC1,1.46 kcal/mol
same,"solvation free energy, 298 K",in C1COCCO1,1.76 kcal/mol
same,"solvation free energy, 298 K",in C=CCCCCCC,1.36 kcal/mol
same,"solvation free energy, 298 K",in C=CCCCCCCC=C,1.6 kcal/mol
same,"solvation free energy, 298 K",in CC1COC(=O)O1,2.04 kcal/mol
same,"solvation free energy, 298 K",in CC#N,1.45 kcal/mol
same,"solvation free energy, 298 K",in CC(=O)OCC(C)C,1.49 kcal/mol
same,"solvation free energy, 298 K",in CC(C)(C)O,1.49 kcal/mol
same,"solvation free energy, 298 K",in CC(C)=O,1.38 kcal/mol
same,"solvation free energy, 298 K",in CC(C)CC(C)(C)C,1.28 kcal/mol
same,"solvation free energy, 298 K",in CC(C)CCO,1.76 kcal/mol
same,"solvation free energy, 298 K",in CC(C)CO,1.53 kcal/mol
same,"solvation free energy, 298 K",in CC(C)N,1.3 kcal/mol
same,"solvation free energy, 298 K",in CC(C)O,1.45 kcal/mol
same,"solvation free energy, 298 K",in CCC(C)=O,1.45 kcal/mol
same,"solvation free energy, 298 K",in CCC(C)O,1.56 kcal/mol
same,"solvation free energy, 298 K",in CCCCC(CC)CO,1.64 kcal/mol
same,"solvation free energy, 298 K",in CCCCCC,1.24 kcal/mol
same,"solvation free energy, 298 K",in CCCCCCC,1.29 kcal/mol
same,"solvation free energy, 298 K",in CCCCCCCC,1.35 kcal/mol
same,"solvation free energy, 298 K",in CCCCCCCCCC,1.49 kcal/mol
same,"solvation free energy, 298 K",in CCCCCCCCCCCCO,1.9 kcal/mol
same,"solvation free energy, 298 K",in CCCCCCCCCCO,1.83 kcal/mol
same,"solvation free energy, 298 K",in CCCCCCCCCO,1.8 kcal/mol
same,"solvation free energy, 298 K",in CCCCCCO,1.61 kcal/mol
same,"solvation free energy, 298 K",in CCCCCO,1.64 kcal/mol
same,"solvation free energy, 298 K",in CCCCCOC(C)=O,1.91 kcal/mol
same,"solvation free energy, 298 K",in CCCCN(CCCC)CCCC,1.53 kcal/mol
same,"solvation free energy, 298 K",in CCCCNCCCC,1.48 kcal/mol
same,"solvation free energy, 298 K",in CCCCO,1.56 kcal/mol
same,"solvation free energy, 298 K",in CCCCOC(C)=O,1.5 kcal/mol
same,"solvation free energy, 298 K",in CCCCOCCCC,1.42 kcal/mol
same,"solvation free energy, 298 K",in CCCCOCCO,1.67 kcal/mol
same,"solvation free energy, 298 K",in CCCN,1.35 kcal/mol
same,"solvation free energy, 298 K",in CCCO,1.52 kcal/mol
same,"solvation free energy, 298 K",in CCN,1.24 kcal/mol
same,"solvation free energy, 298 K",in CCN(CC)CC,1.33 kcal/mol
same,"solvation free energy, 298 K",in CCO,1.47 kcal/mol
same,"solvation free energy, 298 K",in CCOC(C)=O,1.46 kcal/mol
same,"solvation free energy, 298 K",in CCOCC,1.15 kcal/mol
same,"solvation free energy, 298 K",in CCOCCO,1.7 kcal/mol
same,"solvation free energy, 298 K",in CN1CCCC1,1.38 kcal/mol
same,"solvation free energy, 298 K",in CN1CCCC1=O,1.98 kcal/mol
same,"solvation free energy, 298 K",in CN(C)C=O,1.84 kcal/mol
same,"solvation free energy, 298 K",in CN(C)CCCN,1.63 kcal/mol
same,"solvation free energy, 298 K",in CO,1.35 kcal/mol
same,"solvation free energy, 298 K",in COC(C)=O,1.42 kcal/mol
same,"solvation free energy, 298 K",in COCCO,1.84 kcal/mol
same,"solvation free energy, 298 K",in Cc1cccc(C)c1,1.49 kcal/mol
same,"solvation free energy, 298 K",in Cc1ccccc1,1.62 kcal/mol
same,"solvation free energy, 298 K",in ClC(Cl)(Cl)Cl,1.51 kcal/mol
same,"solvation free energy, 298 K",in ClC(Cl)Cl,1.61 kcal/mol
same,"solvation free energy, 298 K",in ClCCCl,1.72 kcal/mol
same,"solvation free energy, 298 K",in ClCCl,1.57 kcal/mol
same,"solvation free energy, 298 K",in Clc1ccccc1,1.65 kcal/mol
same,"solvation free energy, 298 K",in NCCCN,2.05 kcal/mol
same,"solvation free energy, 298 K",in NCCN,2.15 kcal/mol
same,"solvation free energy, 298 K",in O=C1CCCC1,1.72 kcal/mol
same,"solvation free energy, 298 K",in O=C1CCCCC1,1.75 kcal/mol
same,"solvation free energy, 298 K",in OCCO,2.38 kcal/mol
same,"solvation free energy, 298 K",in c1ccccc1,1.58 kcal/mol
Cc1[nH]c(=O)n(C(C)(C)C)c(=O)c1Cl,"solvation free energy, 298 K",in O,-11.1 kcal/mol
FC1(F)C(F)(F)C(F)(F)C1(F)F,"solvation free energy, 298 K",in O,3.43 kcal/mol
C1COCCOCCOCCOCCO1,"solvation free energy, 298 K",in Cc1cccc(C)c1,-10.9 kcal/mol
same,"solvation free energy, 298 K",in O,-12.8 kcal/mol
O=C(O)c1ccc(CO)cc1,"solvation free energy, 298 K",in C=CCCCCCCCCCCCCCC,-8.43 kcal/mol
same,"solvation free energy, 298 K",in O,-13.3 kcal/mol
NCCO,"solvation free energy, 298 K",in CCCCCCC,-2.5 kcal/mol
CC(C)CC(=O)CC(=O)CC(C)C,"solvation free energy, 298 K",in O,-4.42 kcal/mol
CCCCC(CC)CO (stereo unspecified),"solvation free energy, 298 K",in O,-3.96 kcal/mol
Cc1ccnc(C)c1,"solvation free energy, 298 K",in O,-4.86 kcal/mol
CCCCCCOC(C)=O,"solvation free energy, 298 K",in CCCCCCCCCCCCCCCC,-5.94 kcal/mol
same,"solvation free energy, 298 K",in CCCCCCCCO,-6.26 kcal/mol
same,"solvation free energy, 298 K",in NC=O,-4.6 kcal/mol
same,"solvation free energy, 298 K",in O,-2.29 kcal/mol
same,"solvation free energy, 298 K",in [2H]O[2H],-2.44 kcal/mol
CC1=CCC2(C)CCCC(C)(C)C23CC13 (stereo unspecified),"solvation free energy, 298 K",in O,0.46 kcal/mol
CCCCCCCCl,"solvation free energy, 298 K",in O,0.29 kcal/mol
FC(F)(Cl)C(F)(F)Cl,"solvation free energy, 298 K",[1],-1.63 kcal/mol
same,"solvation free energy, 298 K",in CCCCCCCCO,-1.61 kcal/mol
same,"solvation free energy, 298 K",in CN1CCCC1=O,-1.49 kcal/mol
same,"solvation free energy, 298 K",in CN(C)C=O,-1.6 kcal/mol
same,"solvation free energy, 298 K",in O,2.25 kcal/mol
CCC1CO1 (stereo unspecified),"solvation free energy, 298 K",in CC(C)O,-3.72 kcal/mol
same,"solvation free energy, 298 K",in COC(=O)OC,-4.11 kcal/mol
same,"solvation free energy, 298 K",in COC(C)=O,-4.16 kcal/mol
same,"solvation free energy, 298 K",in ClC(Cl)Cl,-4.9 kcal/mol
same,"solvation free energy, 298 K",in O,-2.93 kcal/mol
O=CN1CCOCC1,"solvation free energy, 298 K",in O,-9.41 kcal/mol
